From patent US11161837B2, “Benzofuran derivatives for the treatment of hepatitis C” (BRISTOL-MYERS SQUIBB COMPANY, priority 2016, dated 2021)
pEC50: −log10 of the molar value.

System: genotype 1b (Con-1) HCV replicon in Huh-7 cells
Experiment: HCV replicon luciferase assay
Format: cell-based
Conditions: 1b replicon, Huh-7, Renilla luciferase, 3 days incubation
Experimental: The cell lines used to evaluate compounds consist of a human hepatocyte derived cell line (Huh-7) that constitutively expresses a genotype 1b (Con-1) HCV replicon or a genotype 1b (Con-1) HCV replicon with an asparagine replacing the cysteine at amino acid 316, or a genotype 2a (JFH-1) replicon, containing a Renilla luciferase reporter gene. These cells were maintained in Dulbecco's modified Eagle medium (DMEM) containing 10% FBS, 100 U/mL penicillin/streptomycin and 1.0 mg/mL G418.
HCV Replicon Luciferase Assay.
To evaluate compound efficacy, titrated compounds were transferred to sterile 384-well tissue culture treated plates, and the plates were seeded with HCV replicon cells (50 μL at a density of 2.4×10^3 cells/well) in DMEM containing 4% FBS (final DMSO concentration at 0.5%). After 3 days incubation at 37° C., cells were analyzed for Renilla Luciferase activity using the EnduRen substrate (Promega cat # E6485) according to the manufacturer's directions. Briefly, the EnduRen substrate was diluted in DMEM and then added to the plates to a final concentration of 7.5 μM. The plates were incubated for at least 1 h at 37° C. then read on a Viewlux Imager (PerkinElmer) using a luminescence program. The 50% effective concentration (EC50) was calculated using the four-parameter logistic formula noted above.

**Q.** How did the pEC50 (Hepatitis C virus, Huh-7, 72 h) turn out when CCOc1cc2oc(-c3ccc(F)cc3)c(C(=O)NC)c2cc1-c1cccc(C(=O)NC2(c3ncon3)CC(OC(F)F)C2)c1 (stereo not shown) [Example 70, 5-(3-((3-(Difluoromethoxy)-1-(1,2,4-oxadiazol-3-yl)cyclobutyl)carbamoyl)phenyl)-6-ethoxy-2-(4-fluorophenyl)-N-methylbenzofuran-3-carboxamide] was run?
**A.** Its pEC50 is 8.19.

**Q.** With CCN(c1cc2oc(-c3ccc(F)cc3)c(C(=O)NC)c2cc1-c1cccc(C(=O)NC2(c3ncccn3)CC(OC(F)F)C2)c1)S(C)(=O)=O (stereo not shown) [Example 24, 5-(3-((3-(difluoromethoxy)-1-(pyrimidin-2-yl)cyclobutyl)carbamoyl)phenyl)-6-(N-ethylmethylsulfonamido)-2-(4-fluorophenyl)-N-methylbenzofuran-3-carboxamide] as the molecule, how does the pEC50 (Hepatitis C virus, Huh-7, 72 h) read?
**A.** The pEC50 was 8.66.

**Q.** With CCCc1cc2oc(-c3ccc(F)cc3)c(C(=O)NC)c2cc1-c1ccc(F)c(C(=O)NC2(C)CC(OC(F)F)C2)c1 (single isomer, unassigned) [Example 61b, 5-(3-((3-(Difluoromethoxy)-1-methylcyclobutyl)carbamoyl)-4-fluorophenyl)-2-(4-fluorophenyl)-N-methyl-6-propylbenzofuran-3-carboxamide] as the molecule, how does the pEC50 read?
**A.** Its pEC50 is 7.70.

**Q.** CNC(=O)c1c(-c2ccc(F)cc2)oc2cc(CCC(F)(F)F)c(-c3cccc(C(=O)NC4(C)CC(OC(F)F)C4)c3)cc12 (single isomer, unassigned) [Example 59a, 5-(3-((3-(Difluoromethoxy)-1-methylcyclobutyl)carbamoyl)phenyl)-2-(4-fluorophenyl)-N-methyl-6-(3,3,3-trifluoropropyl)benzofuran-3-carboxamide] was tested. Which pEC50 (Hepatitis C virus, Huh-7, 72 h) did it give?
**A.** The pEC50 was 7.52.

**Q.** How did the pEC50 turn out when CCCc1cc2oc(-c3ccc(F)cc3)c(C(=O)NC)c2cc1-c1cccc(C(=O)NC2(C)CC(OC(F)F)C2)c1 (single isomer, unassigned) [Example 55b, 5-(3-((3-(Difluoromethoxy)-1-methylcyclobutyl)carbamoyl)phenyl)-2-(4-fluorophenyl)-N-methyl-6-propylbenzofuran-3-carboxamide] was run?
**A.** Its pEC50 is 7.52.

**Q.** With CNC(=O)c1c(-c2ccc(F)cc2)oc2cc(CCC(F)(F)F)c(-c3cc(C(=O)NC4(C)CC(OC(F)F)C4)c(OC)cc3C)cc12 (single isomer, unassigned) [Example 53b, 5-(5-((3-(Difluoromethoxy)-1-methylcyclobutyl)carbamoyl)-4-methoxy-2-methylphenyl)-2-(4-fluorophenyl)-N-methyl-6-(3,3,3-trifluoropropyl)benzofuran-3-carboxamide] as the molecule, how does the pEC50 read?
**A.** Its pEC50 is 7.22.

**Q.** CCOc1cc2oc(-c3ccc(F)cc3)c(C(=O)NC)c2cc1-c1cccc(C(=O)NC2(c3ncccn3)CC(OC(F)F)C2)c1 (single isomer, unassigned) [Example 67a, 5-(3-((3-(Difluoromethoxy)-1-(pyrimidin-2-yl)cyclobutyl)carbamoyl)phenyl)-6-ethoxy-2-(4-fluorophenyl)-N-methylbenzofuran-3-carboxamide] was tested. Which pEC50 did it give?
**A.** The pEC50 was 7.52.

**Q.** How did the pEC50 turn out when CNC(=O)c1c(-c2ccc(F)cc2)oc2cc(CCC(F)(F)F)c(-c3cccc(C(=O)NC4(c5ncccn5)CC(OC(F)F)C4)c3)cc12 (single isomer, unassigned) [Example 29b] was run?
**A.** The pEC50 was 7.52.

**Q.** With CNC(=O)c1c(-c2ccc(F)cc2)oc2cc(CCC(F)(F)F)c(-c3ccc(F)c(C(=O)NC4(C)CC(OC(F)F)C4)c3)cc12 (single isomer, unassigned) [Example 63a, 5-(3-((3-(Difluoromethoxy)-1-methylcyclobutyl)carbamoyl)-4-fluorophenyl)-2-(4-fluorophenyl)-N-methyl-6-(3,3,3-trifluoropropyl)benzofuran-3-carboxamide] as the molecule, how does the pEC50 (Hepatitis C virus, Huh-7, 72 h) read?
**A.** The pEC50 was 8.00.

**Q.** How did the pEC50 (Hepatitis C virus, Huh-7, 72 h) turn out when CCCc1cc2oc(-c3ccc(F)cc3)c(C(=O)NC)c2cc1-c1ccc(OC)c(C(=O)NC2(c3ncccn3)CC(OC(F)F)C2)c1 (stereo not shown) [Example 37] was run?
**A.** The pEC50 was 8.22.
